Reference: patent US9895363B2, “Methods for modulating function of proliferating cell nuclear antigen (PCNA) and treating cancer with PCNA-targeting compounds” (University of Cincinnati, priority 2010, dated 2018)
Entries after “also recorded” stand apart in the source; their conditions may differ. Like-named read-outs stand apart in the source and are kept apart here.

Key:
[1] = tested on: MCF-7 breast cancer cells; experiment: Growth inhibition by MTT staining, MCF-7; format: cell-based; conditions: MCF7, 96 h, Human, tumor cells, treated four days
Description: (§1) Growth inhibitory effects of PCNA-I1 and PCNA-I2 were assessed in human cancer cell lines, mouse cancer cell lines, immortalized mouse cell lines, and human primary cell lines. Specifically, growth inhibitory effects of PCNA-I1 and PCNA-I2 were assessed using MTT staining in the following cells lines: 1) human cancer cell lines including LNCaP (androgen receptor […]), 22Rv1, DU-145, LAPC-4, and PC-3 (androgen receptor […]) prostate cancer cells; MCF-7 and T47D breast cancer cells; A375 and MDA-MB435 melanoma cells; 2) mouse cancer cell lines including TRAMP-C2RE3 prostate cancer cells, B16 and K1735 melanoma cells, UV2237 fibrosarcoma cells, and CT-26 colon cancer cells; 3) immortalized mouse lung cell lines and mouse endothelial cell lines; and 4) primary human cell lines including umbilical endothelial cells (HUVEC, PromoCell, Heidelberg, Germany), primary bone marrow mesenchymal stem cells (HuMSC, PromoCell), primary human mammary epithelial cells (HuBrEC, Lonza, Walkersville, Md.), primary human prostate epithelial cells (HuPrEC, Lonza), and primary mouse spleen lymphocytes (isolated in this laboratory), and primary mouse bone marrow stromal cells (isolated in this laboratory). […]
(§2) IC50 values were derived from growth inhibition curves. […] Inhibition of cell growth was calculated using the formula: growth inhibition (%)=(1−A570 of treated/A570 of control)×100. […]

[2] = tested on: 22Rv1 prostate cancer cells; experiment: Growth inhibition by MTT staining, 22Rv1; format: cell-based; conditions: 22Rv1, 96 h, Human tumor cells, treated four days
Description: as §1, §2

[3] = tested on: LAPC-4 prostate cancer cells; experiment: Growth inhibition by MTT staining, LAPC-4; format: cell-based; conditions: LAPC4, 96 h, Human tumor cells, treated four days
Description: as §1, §2

A375 melanoma cells = experiment: Growth inhibition by MTT staining, A375; format: cell-based; conditions: A-375, 96 h, Human, treated four days
Description: as §1, §2

[4] = tested on: CT26R100 murine colon cancer cell line; experiment: Growth inhibition by MTT staining, CT26R100; format: cell-based, Mouse
[5] = tested on: primary human mammary epithelial cells; experiment: Growth inhibition, mammary epithelial cells; format: cell-based; conditions: Epithelial cell, normal cells, read-out: IC50 Values, Breast Epithelial Cells
Description: as §1, §2

[6] = tested on: primary human prostate epithelial cells; experiment: Growth inhibition, prostate epithelial cells; format: cell-based; conditions: Epithelial cell, normal cells
Description: as §1, §2

[7] = tested on: Lung Endothelial Cells (immortal) (Mu-Lu-Endo); experiment: Growth inhibition, mouse lung endothelial cells; format: cell-based; conditions: for IC50: Endothelial cell
Description: Growth inhibitory effects of PCNA-I1 and PCNA-I2 were assessed in human cancer cell lines, mouse cancer cell lines, immortalized mouse cell lines, and human primary cell lines. Specifically, growth inhibitory effects of PCNA-I1 and PCNA-I2 were assessed using MTT staining in the following cells lines: 1) human cancer cell lines including LNCaP (androgen receptor […]), 22Rv1, DU-145, LAPC-4, and PC-3 (androgen receptor […]) prostate cancer cells; MCF-7 and T47D breast cancer cells; A375 and MDA-MB435 melanoma cells; 2) mouse cancer cell lines including TRAMP-C2RE3 prostate cancer cells, B16 and K1735 melanoma cells, UV2237 fibrosarcoma cells, and CT-26 colon cancer cells; 3) immortalized mouse lung cell lines and mouse endothelial cell lines; and 4) primary human cell lines including umbilical endothelial cells (HUVEC, PromoCell, Heidelberg, Germany), primary bone marrow mesenchymal stem cells (HuMSC, PromoCell), primary human mammary epithelial cells (HuBrEC, Lonza, Walkersville, Md.), primary human prostate epithelial cells (HuPrEC, Lonza), and primary mouse spleen lymphocytes (isolated in this laboratory), and primary mouse bone marrow stromal cells (isolated in this laboratory). PCNA-I1 and PCNA-I2 were either provided by the University of Cincinnati Drug Discovery Center (UC-DDC, Cincinnati, Ohio) or were purchased from Chembridge Co (San Diego, Calif.), ChemDiv (San Diego, Calif.), and/or Sigma-Aldrich (St Louis, Mo.).
Growth inhibitory effects of the compounds were assessed by MTT staining as described previously by Dong et al. in In Vitro Model for Intrinsic Drug Resistance: Effects of Protein Kinase C Activators on the Chemosensitivity of Cultured Human Colon Cancer Cells; Mol. Pharmacol. 1991; 39: 563-9. […]
IC50 values were derived from growth inhibition curves. […] Inhibition of cell growth was calculated using the formula: growth inhibition (%)=(1−A570 of treated/A570 of control)×100. […] The fluorescence intensity was measured at 530/580 (excitation/emission) in the FLUOstar Omega microplate reader (BMG LABTECH, Cary, N.C.). […]

[8] = tested on: Prostate Endothelial cells (Mu-Pr-Endo); experiment: Growth inhibition, mouse prostate endothelial cells; format: cell-based; conditions: Endothelial cell
Description: as §1, §2

## Cc1ccsc1C(=O)N/N=C/c1ccc2ccccc2c1O [PCNA-I1]
[1]
  IC50: 150 nM
[2]
  IC50: 180 nM
[3]
  IC50: 300 nM
A375 melanoma cells
  IC50: 290 nM
[4]; Mouse tumor cells, cell line not given, read-out: IC50 Values, cell line cell blank (second row below UV2237)
  IC50: 80 nM
[4]; cells overexpress P-glycoprotein, MDR phenotype
  Sensitivity of multidrug resistant CT26R100 and CT26-R500 cells relative to parental CT26 cells: even more sensitive to PCNA-I1 than the parental CT26 cells; also recorded: as susceptible as the parental CT-26 cells
[5]
  IC50: 1670 nM
[6]
  IC50: 2000 nM
[7]; Mouse, Blood Vessel, normal cells, read-out: IC50 Values, Lung Endothelial Cells (immortal)
  IC50: 1160 nM
[7]; FIG. 2(C)
  Growth stimulation, Mu-Lu-Endo: Moderate growth stimulation
[7]; Mus musculus, FIG. 2(C), read-out: IC50, Mu-Lu-Endo
  IC50: 1160 nM
[8]; Mouse, Blood Vessel, normal cells, read-out: IC50 Values, Prostate Endothelial
  IC50: 680 nM
[8]; Mus musculus, FIG. 2(C), read-out: IC50, Mu-Pr-Endo
  IC50: 677 nM
